These results are taken from paper PMC11356900, “Synthesis, Structural Properties and Biological Activities of Novel Hydrazones of 2-, 3-, 4-Iodobenzoic Acid” (Molecules, 2024).

≈ marks a conversion by molar mass, not a printed value. Bounds are passed on as bounds.

Series [1] relates to Staphylococcus aureus ATCC 25923. The series is described as follows: Broth microdilution MIC/MBC. To be noted: Staphylococcus aureus, ATCC25923. (Broth dilution looks for growth in wells or tubes with falling amounts of substance.)
Series [2] relates to Candida albicans ATCC 2091. The series can be described thus: Broth microdilution MIC/MFC. It counts as cell-based. As to conditions: ATCC2091, read-out: MIC. An excerpt:
(§1) Procedures of in vitro antimicrobial assays are described in Supplementary Materials.
(§2) 2. Microbiology – in vitro antimicrobial activity assays […]
(§3) using the broth microdilution method according to the European Committee on Antimicrobial Susceptibility Testing (EUCAST) and Clinical and Laboratory Standards Institute guidelines against a panel of reference and clinical or saprophytic strains of mi croorganisms, including the Gram-positive bacteria: Staphylococcus aureus ATCC 43300 (Methi-cillin Resistant S. aureus – MRSA), Staphylococcus aureus ATCC 29213 (Methicillin Susceptible S. aureus – MSSA), Staph-ylococcus epidermidis ATCC 12228, Micrococcus luteus ATCC 10240, Bacillus subtilis ATCC 6633 and Bacillus cereus ATCC 10876), Gram-negative bacteria: Bordetella bronchiseptica ATCC 4617, Escherichia coli ATCC 25922, Klebsiella pneumoniae ATCC 13883, Proteus mirabilis ATCC 12453, Salmonella typhimurium ATCC 14028 and Pseudomonas aeruginosa ATCC 9027, and fungi belonging to yeasts: Candida albicans ATCC 10231, Candida albicans ATCC 2091, Candida parapsilosis ATCC 22019, Candida glabrata ATCC 90030 and Candida krusei ATCC 14243. The microorganisms belonging to ATCC originated from American Type Culture Collection, routinely used for the evaluation of antimicrobials. All the used microbial cultures were first subcultured on nutrient agar or Sabouraud agar at 35°C for 18-24 h or 30°C for 24-48 h for bacteria […]
(§4) The surface of Mueller-Hinton agar (for bacteria) and RPMI 1640 with MOPS (for fungi) were inoculated with the suspensions of bacterial or fungal species. Microbial suspensions were prepared in sterile saline with an optical density of McFarland standard scale 0.5. The samples containing the compounds were dissolved in dimethyl sulfoxide (DMSO).
(§5) Furthermore, the bacterial and fungal suspensions put onto the Petri dishes with solid media containing 2 mg/mL of the tested compounds followed were incubated at 37°C for 24h and 30°C for 48h for bacteria and fungi, respectively.
(§6) The inhibition of microbial growth was estimated comparing with a control culture prepared without any tested sam- […]
(§7) antifungal compounds, respectively.
(§8) Subsequently, MIC (Minimal Inhibitory Concentration) of the compounds was examined by the microdilution broth method, using their two-fold dilutions in Mueller-Hinton broth (for bacteria) and RPMI 1640 broth with MOPS (for fungi) prepared in the 96-well polystyrene plates. The final concentrations of the compounds ranged from 1000 to 0.488 µg/mL. Microbial suspensions were prepared in 0.85% NaCl with an optical density of 0.5 McFarland standard. Next each bacterial or fungal suspension was added per each well containing broth and various concentrations of the exam-ined compounds. After incubation, the MIC was assessed spectrophotometrically as the lowest concentration of the […]
(§9) Appropriate DMSO, growth and sterile controls were carried out. The medium with no tested substances was used as a control The MBC (Minimal Bactericidal Concentration) and MFC (Minimal Fungicidal Concentration) are defined as the lowest concentration of the compounds that is required to kill a particular bacterial or fungal species. The MBC/MFC was determined by removing the culture used for the MIC determination from each well and spotted onto the appro-priate agar medium. The plates were incubated under appropriate conditions for bacteria and fungi. The lowest com-pounds concentration with no visible growth observed was assessed as a bactericidal/fungicidal concentration. All the experiments were repeated three times and the representative data are presented.
(§10) 1. European Committee for Antimicrobial Susceptibility Testing (EUCAST) Determination of minimum inhibitory con-centrations (MICs) of antibacterial agents by broth dilution. EUCAST discussion document E. Dis 5.1. Clin. Microbiol.
(§11) 2. Clinical and Laboratory Standards Institute. Reference method for broth dilution antifungal susceptibility testing of […]

Series [3] deals with Candida parapsilosis ATCC 22019. The series is described as follows: Broth microdilution MIC/MFC. It counts as cell-based. To be noted: Lodderomyces parapsilosis, ATCC22019, read-out: MIC.
From the text: as §1, §2, §3, §4, §5, §6, §7, §8, §9, §10, §11

Series [4] deals with Candida krusei ATCC 14243. The series can be described thus: Broth microdilution MIC/MFC. It is filed as cell-based. As to conditions: Pichia kudriavzevii, ATCC14243, read-out: MIC.
From the text: as §1, §2, §3, §4, §5, §6, §7, §8, §9, §10, §11

Series [5] deals with Candida albicans ATCC 10231. The series can be described thus: Broth microdilution MIC/MFC. It is filed as cell-based. As to conditions: ATCC10231, read-out: MIC.
From the text: as §1, §2, §3, §4, §5, §6, §7, §8, §9, §10, §11

Series [6] relates to Candida glabrata ATCC 90030. The series can be described thus: Broth microdilution MIC/MFC. It is filed as cell-based. To be noted: Nakaseomyces glabratus, ATCC90030, read-out: MIC.
From the text: as §1, §2, §3, §4, §5, §6, §7, §8, §9, §10, §11

Series [7] has as its system Salmonella typhimurium ATCC 14028. The series is described as follows: Broth microdilution MIC/MBC. As to conditions: Salmonella enterica.
The test system of the next series is Gram-positive bacteria. The series is described as follows: Broth microdilution, summary over reference Gram-positive bacteria. It is filed as cell-based.
From the text: as §1, §2, §3, §4, §5, §6, §7, §8, §9, §10, §11

Series [8] has as its system Bacillus cereus ATCC 10876. The series can be described thus: Broth microdilution MIC/MBC. To be noted: Bacillus cereus, ATCC10876.
Series [9] deals with Pseudomonas aeruginosa ATCC 9027. The series is described as follows: Broth microdilution MIC/MBC. To be noted: ATCC9027.
Series [10] relates to Proteus mirabilis ATCC 12453. The series can be described thus: Broth microdilution MIC/MBC. As to conditions: ATCC12453.
In series [11] the test system is Bordetella bronchiseptica ATCC 4617. The series can be described thus: Broth microdilution MIC/MBC. To be noted: ATCC4617.
The subject of series [12] is Klebsiella pneumoniae ATCC 13883. The series can be described thus: Broth microdilution MIC/MBC. To be noted: ATCC13883.
The test system of series [13] is Bacillus subtilis ATCC 6633. The series is described as follows: Broth microdilution MIC/MBC. As to conditions: ATCC6633.
The subject of series [14] is Staphylococcus epidermidis ATCC 12228. The series is described as follows: Broth microdilution MIC/MBC. To be noted: ATCC12228.
The subject of series [15] is Escherichia coli ATCC 25922. The series is described as follows: Broth microdilution MIC/MBC. As to conditions: ATCC25922.
Series [16] has as its system Staphylococcus aureus ATCC 43300. The series can be described thus: Broth microdilution MIC/MBC. As to conditions: ATCC43300 / MRSA.
Series [17] concerns Staphylococcus aureus ATCC 29213. The series is described as follows: Broth microdilution MIC/MBC. To be noted: ATCC29213.
The subject of series [18] is Micrococcus luteus ATCC 10240. The series is described as follows: Broth microdilution MIC/MBC. As to conditions: Micrococcus luteus, ATCC10240.

The molecule `CCOc1cccc(/C=N/NC(=O)c2cccc(I)c2)c1O` [Compound 18, N-[(3-ethoxy-2-hydroxyphenyl)methylidene]-3-iodobenzohydrazide] registered a melting point of 115 to 121 °C. Moreover, the MIC in [1] is more than 1000 µg/mL. The MIC in series [2] was more than 1000 µg/mL. In series [3], the MIC is more than 1000 µg/mL. Besides, the MIC in series [4] was more than 1000 µg/mL. Besides, the MIC in series [5] was more than 1000 µg/mL. For the same molecule, in series [6], the MIC is more than 1000 µg/mL. The MIC in series [7] is more than 1000 µg/mL. This molecule also gave an MIC against Gram-positive bacteria of 31.2 to 1000 µg/mL (≈ 76.2 to 2440 µM). The molecule also came in with an MIC in series [8] of more than 1000 µg/mL. The molecule also displayed an MIC in [9] of more than 1000 µg/mL. This molecule showed an MIC in [10] of more than 1000 µg/mL. In series [11], this molecule returned an MIC of more than 1000 µg/mL. This molecule also had an MIC in series [12] of more than 1000 µg/mL. In series [13], the MBC is more than 1000 µg/mL and inhibition of growth (MIC) required 62.5 µg/mL (≈ 152 µM). In series [14], this molecule registered an MBC of more than 1000 µg/mL and an MIC of 500 µg/mL (≈ 1220 µM). In series [15], this molecule had an MIC of more than 1000 µg/mL. Further, the MIC in series [16] was more than 1000 µg/mL. Moreover, the MIC in series [17] was more than 1000 µg/mL. Also, in [18], the MBC turned out to be 250 µg/mL (≈ 609 µM) and 31.2 µg/mL (≈ 76.2 µM) was the least that counted as inhibitory (MIC).

`NNC(=O)c1cccc(I)c1` [Compound 5, 3-iodobenzohydrazide]: the melting point was 134 to 140 °C. The MIC in series [1] is more than 1000 µg/mL. Further, the MIC in [2] is more than 1000 µg/mL. Besides, the MIC in [3] was more than 1000 µg/mL. The MIC in [4] is more than 1000 µg/mL. For the same molecule, the MIC in [5] is more than 1000 µg/mL. Also, the MIC in series [6] was more than 1000 µg/mL. The MIC in series [7] was more than 1000 µg/mL. The same molecule displayed an MIC with Gram-positive bacteria of 31.2 to 1000 µg/mL (≈ 119 to 3820 µM). In [8], this molecule returned an MIC of more than 1000 µg/mL. Further, the MIC in series [9] was more than 1000 µg/mL. The MIC in [10] is more than 1000 µg/mL. The same molecule yielded an MIC in [11] of more than 1000 µg/mL. Further, the minimum inhibitory concentration (MIC) in [12] was more than 1000 µg/mL. In [13], this molecule gave an MBC of more than 1000 µg/mL and an MIC of 1000 µg/mL (≈ 3820 µM). In series [14], this molecule showed an MBC of more than 1000 µg/mL and an MIC of 1000 µg/mL (≈ 3820 µM). The molecule also came in with an MIC in [15] of more than 1000 µg/mL. The molecule also registered an MIC in series [16] of more than 1000 µg/mL. The MIC in [17] was more than 1000 µg/mL. In series [18], this molecule registered an MBC of more than 1000 µg/mL and an MIC of 1000 µg/mL (≈ 3820 µM).

Broadly, the MIC is the lowest concentration found to suppress growth. Broadly, the melting point is the temperature of the solid-liquid transition. By MBC is commonly meant the lowest tested concentration that kills the bacteria rather than only halting them. Higher therefore signals less potent killing.
